Measured values reported in PMC12278645, “Design, synthesis, and antitumor activity of novel thioheterocyclic nucleoside derivatives by suppressing the c-MYC pathway” (Acta Pharmaceutica Sinica. B, 2025).

Legend:
HCT116 cells = test: CCK-8 anti-proliferation assay, HCT116; assay type: cell-based, human; conditions: for anticancer activity: under 50 μmol/L, HeLa and HCT116
Description: (§1) Tumor cell anti-proliferation activities were determined by cell counting kit-8 (CCK-8) assay.
(§2) MCF-7, A375, and HeLa cells were cultured in DMEM, HCT116 cells were cultured in McCoy's 5A medium, and DU145 and CT26 were cultured in RPMI 1640 with 10% FBS, 1% penicillin-streptomycin solution (10,000 U/mL penicillin and 10,000 μg/mL streptomycin) at 37 °C under 5% CO2. The cells were seeded in 96-well plates (4 × 10^3 cells/well) overnight and then treated with various concentrations (1–50 μmol/L) of the compound. After 48 h, the cell viability was measured by CCK-8 assay. The absorbance of each well was measured using a microplate reader (Multiskan FC, Thermo Fisher Scientific, Massachusetts, USA) at 450 nm wavelength. Assays were performed in triplicate. Compound concentrations that inhibited cell growth by 50% (IC50) were calculated from the dose–response curves of each cell line. Data are mean ± SD values from three independent experiments.

[1] = system: CT26 (mouse colon cancer); test: CCK-8 anti-proliferation assay, CT26; assay type: cell-based; conditions: CCK-8, 48 h, mean ± SD
Description: (§3) To evaluate their spectrum of anti-proliferative activity, further CCK-8 assays were carried out with the selected compounds (5a/5b, 8a/8b, 33a/33b, and 36a/36b) on MCF-7 (human breast cancer), A375 (human malignant melanoma), DU145 (human prostate cancer), and CT26 (mouse colon cancer) cell lines. The selected compounds had moderate to potent antitumor activity on the four cell lines, indicating their broad spectrum of antitumor activity (Table 5).
as §2

[2] = system: MCF-7 (human breast cancer); test: CCK-8 anti-proliferation assay, MCF-7; assay type: cell-based; conditions: CCK-8, 48 h, mean ± SD
Description: as §3, §2

[3] = system: A375 (human malignant melanoma); test: CCK-8 anti-proliferation assay, A375; assay type: cell-based; conditions: CCK-8, 48 h, mean ± SD
Description: as §3, §2

HeLa cells = test: CCK-8 anti-proliferation assay, HeLa; assay type: cell-based, human
Description: as §1, §2

[4] = system: DU145 (human prostate cancer); test: CCK-8 anti-proliferation assay, DU145; assay type: cell-based; conditions: CCK-8, 48 h, mean ± SD
Description: as §3, §2

[5] = CCK-8, 48 h, mean ± SD, three independent experiments
[6] = Homo sapiens, HCT-116, 48 h, CCK-8, 48 h, mean ± SD, three independent experiments
[7] = Homo sapiens, HeLa, 48 h, CCK-8, 48 h, mean ± SD, three independent experiments

## CCOC(=O)C1(n2cnc3c(N4CCCCC4)ncnc32)CSCC1O (single isomer, unassigned) [5a]
HCT116 cells; [5]
  IC50: 1.84 ± 0.14 µM
[1]
  IC50: 2.33 ± 0.14 µM
[2]
  IC50: 11.2 ± 1.04 µM
[3]
  IC50: 11.8 ± 1.12 µM
HeLa cells; [5]
  IC50: 2.65 ± 0.52 µM
[4]
  IC50: 42.8 ± 2.12 µM

## CCOC(=O)C1(n2cnc3c(N4CCCCC4)ncnc32)CSCC1O (single isomer, unassigned) [5b]
HCT116 cells; [5]
  IC50: 1.77 ± 0.12 µM
[1]
  IC50: 2.42 ± 0.11 µM
[2]
  IC50: 35.2 ± 2.14 µM
[3]
  IC50: 7.52 ± 1.03 µM
HeLa cells; [5]
  IC50: 4.61 ± 0.87 µM
[4]
  IC50: 42.5 ± 2.11 µM

## CCCSc1ncnc2c1ncn2C1(C(=O)OCC)CSCC1O (single isomer, unassigned) [8a]
HCT116 cells; [5]
  IC50: 3.43 ± 0.23 µM
[1]
  IC50: 2.58 ± 0.15 µM
[2]
  IC50: 28.2 ± 2.16 µM
[3]
  IC50: 4.52 ± 1.12 µM
HeLa cells; [5]
  IC50: 2.77 ± 0.41 µM
[4]
  IC50: 29.3 ± 1.37 µM

## CCCSc1ncnc2c1ncn2C1(C(=O)OCC)CSCC1O (single isomer, unassigned) [8b]
HCT116 cells; [5]
  IC50: 2.02 ± 0.07 µM
[1]
  IC50: 2.37 ± 0.08 µM
[2]
  IC50: 25.4 ± 2.45 µM
[3]
  IC50: 2.82 ± 0.03 µM
HeLa cells; [5]
  IC50: 2.55 ± 0.12 µM
[4]
  IC50: 11 ± 1.04 µM

## CCOC(=O)C1(n2cnc3c(Cl)nc(F)nc32)CSCC1O (single isomer, unassigned) [39a]
HCT116 cells; Table S3, CCK-8, mean ± SD
  IC50: 3.42 ± 0.42 µM
HeLa cells; Table S3, CCK-8, mean ± SD
  IC50: 11.2 ± 1.32 µM

## CCOC(=O)C1(n2cnc3c(Cl)nc(F)nc32)CSCC1O (single isomer, unassigned) [39b]
HCT116 cells; Table S3, CCK-8, mean ± SD
  IC50: 2.01 ± 0.24 µM
HeLa cells; Table S3, CCK-8, mean ± SD
  IC50: 9.33 ± 1.17 µM

## CCOC(=O)C1(n2cnc3c(Cl)nc(Cl)nc32)CSCC1O (single isomer, unassigned) [40a]
HCT116 cells; Table S3, CCK-8, mean ± SD
  IC50: 5.37 ± 1.02 µM
HeLa cells; Table S3, CCK-8, mean ± SD
  IC50: 8.21 ± 1.25 µM

## CCOC(=O)C1(n2cnc3c(Cl)nc(Cl)nc32)CSCC1O (single isomer, unassigned) [40b]
HCT116 cells; Table S3, CCK-8, mean ± SD
  IC50: 2.13 ± 0.46 µM
HeLa cells; Table S3, CCK-8, mean ± SD
  IC50: 4.45 ± 1.07 µM

## CCOC(=O)C1(n2cnc3c(N4CCOCC4)nc(Cl)nc32)CSCC1O (single isomer, unassigned) [42a]
HCT116 cells; Table S3, CCK-8, mean ± SD
  IC50: 24.2 ± 1.32 µM
HeLa cells; Table S3, CCK-8, mean ± SD
  IC50: 6.32 ± 1.02 µM

## CCOC(=O)C1(n2cnc3c(N4CCOCC4)nc(Cl)nc32)CSCC1O (single isomer, unassigned) [42b]
HCT116 cells; Table S3, CCK-8, mean ± SD
  IC50: 4.48 ± 0.56 µM
HeLa cells; Table S3, CCK-8, mean ± SD
  IC50: 3.21 ± 0.65 µM

## CCOC(=O)C1(n2cnc3cncnc32)CSCC1O (stereo not shown) [1a]
HCT116 cells; [5]
  IC50: > 50 µM
HCT116 cells
  anticancer activity: no anticancer activity
HeLa cells; [5]
  IC50: > 50 µM

## O=c1[nH]cc(F)c(=O)[nH]1 [5-FU, 5-fluorouracil, reference compound]
HCT116 cells; [6]
  IC50: 9.84 ± 2.32 µM
[1]; Mus musculus, CT26
  IC50: 3.12 ± 0.13 µM
[2]; Homo sapiens, MCF7
  IC50: > 50 µM
[3]; Homo sapiens, A-375
  IC50: 8.62 ± 1.21 µM
HeLa cells; [7]
  IC50: 4.93 ± 1.02 µM
[4]; Homo sapiens, DU-145
  IC50: 21.4 ± 2.17 µM

## CCOC(=O)C1(n2cnc3c(OCC)ncnc32)CSCC1O (stereo not shown) [6a]
HCT116 cells; [5]
  IC50: > 50 µM
HeLa cells; [5]
  IC50: > 50 µM

## CCOC(=O)C1(n2cnc3c(OC)ncnc32)CSCC1O (stereo not shown) [7a]
HCT116 cells; [5]
  IC50: > 50 µM
HeLa cells; [5]
  IC50: > 50 µM

## CCOC(=O)C1(n2cnc3c(N4CCC(Cc5ccccc5)CC4)ncnc32)CSCC1O (stereo not shown) [16a]
HCT116 cells; [5]
  IC50: 1.2 ± 0.09 µM
HeLa cells; [5]
  IC50: 3.34 ± 0.36 µM

## CCOC(=O)C1(n2cnc3c(N4CCN(C)CC4)ncnc32)CSCC1O (stereo not shown) [18a]
HCT116 cells; [5]
  IC50: > 50 µM
HCT116 cells
  anticancer activity: inactive
HeLa cells; [5]
  IC50: > 50 µM

## CCOC(=O)[C@@]1(n2cnc3c(N4CCCCC4)nc(F)nc32)CSC[C@@H]1O [33 ab]
HCT116 cells; [6]
  IC50: 0.21 ± 0.13 µM
HeLa cells; [7]
  IC50: 10.1 ± 1.02 µM

## CCOC(=O)[C@]1(n2cnc3c(N4CCCCC4)nc(F)nc32)CSC[C@H]1O [33aa]
HCT116 cells; [6]
  IC50: 0.58 ± 0.17 µM
HeLa cells; [7]
  IC50: 6.17 ± 1.01 µM

## CCOC(=O)C1(n2cnc3c(N4CCCCC4)nc(F)nc32)CSCC1O (stereo not shown) [33b]
HCT116 cells; [5]
  IC50: 0.46 ± 0.04 µM
[1]
  IC50: 0.79 ± 0.14 µM
[2]
  IC50: 7.47 ± 1.17 µM
[3]
  IC50: 14.67 ± 0.09 µM
HeLa cells; [5]
  IC50: 8.15 ± 1.08 µM
[4]
  IC50: 18.6 ± 2.12 µM

## CCCSc1nc(F)nc2c1ncn2C1(C(=O)OCC)CSCC1O (stereo not shown) [36a]
HCT116 cells; [5]
  IC50: 0.72 ± 0.12 µM
[1]
  IC50: 0.94 ± 0.11 µM
[2]
  IC50: 11.3 ± 1.27 µM
[3]
  IC50: 4.27 ± 1.02 µM
HeLa cells; [5]
  IC50: 9.68 ± 1.12 µM
[4]
  IC50: 9.48 ± 1.11 µM

## CCCSc1nc(F)nc2c1ncn2[C@@]1(C(=O)OCC)CSC[C@@H]1O [36ba]
HCT116 cells; [5]
  IC50: 0.89 ± 0.14 µM
HeLa cells; [5]
  IC50: 5.52 ± 1.12 µM

## CCCSc1nc(F)nc2c1ncn2[C@]1(C(=O)OCC)CSC[C@H]1O [36bb]
HCT116 cells; [6]
  IC50: 0.37 ± 0.08 µM
HeLa cells; [7]
  IC50: 9.49 ± 1.18 µM

## CCOC(=O)C1(n2cnc3cnc(Cl)nc32)CSCC1O (stereo not shown) [41a]
HCT116 cells; Table S3, CCK-8, mean ± SD
  IC50: > 50 µM
HeLa cells; Table S3, CCK-8, mean ± SD
  IC50: > 50 µM

## N.N.[Cl][Pt][Cl] [Cisplatin, cisplatin, reference compound]
HCT116 cells; [5]
  IC50: 5.29 ± 0.25 µM
[1]
  IC50: 22.5 ± 1.28 µM
[2]
  IC50: 6.32 ± 0.74 µM
[3]
  IC50: 9.42 ± 0.87 µM
HeLa cells; [5]
  IC50: 11.2 ± 0.81 µM
[4]
  IC50: 9.65 ± 0.48 µM
